{"source": "patent US9278086B2", "about": "“Combination therapy and uses thereof for treatment and prevention of parasitic infection and disease” (The Royal Institution for the Advancement of …, priority 2010, dated 2016)", "key": {"[1]": {"settings": "humans, oral dose 1475 mg Cys bitartrate (500 mg cysteamine base), cited from earlier work"}, "[2]": {"system": "Plasmodium chabaudi", "experiment": "4-day test, P. chabaudi (10^7 pRBC i.v.) in pantetheinase-deficient A/J mice, blood parasitemia days 4 and 5", "type": "in vivo", "settings": "for Inhibition of parasitemia Day 4 / Inhibition of parasitemia Day 5: days 0-3", "method": "A/J and C57BL/6 (B6) mice were purchased from the Jackson Laboratories (Bar Harbor, Me.) and were housed at McGill University according to the guidelines of the Canadian Council on Animal Care. An LDH virus-free isolate of P. chabaudi AS was maintained by weekly passage in A/J mice. Mice were infected intravenously into the tail vein (i.v.) with 10^6 or 10^7 pRBC suspended in pyrogen-free saline. Following infection, the percentage of pRBC was determined daily on thin blood smears stained with Dif-Quik™ (Dade Behring, Newark, Del.), as described (Fortin A, et al. (2001) Proc Natl Acad Sci USA 98: 10793-10798).\nCysteamine hydrochloride (Sigma, Burlington ON) was prepared in PBS. Chloroquine hydrochloride, artesunate and dihydroartemisinin were provided by Dafra Pharmaceuticals; chloroquine was prepared in PBS, artesunate and DHA were prepared in 5% sodium bicarbonate and diluted in water to appropriate concentrations. All solutions were prepared fresh daily, filter sterilized and injections were performed intra-peritoneally (i.p) or subcutaneously (s.c.) for 4 days or according to treatment regimen. Mice were weighed prior to treatment to determine appropriate doses and injection volumes ranged from 100-400 μL per mouse. In the case of animals treated with two drugs, artemisinin derivatives were administered first (due to the short half life of cysteamine), followed by cysteamine 5-10 minutes later on alternate sides. Untreated control animals were injected with PBS alone.\nGroups with normally distributed data points were compared using parametric unpaired t-tests, while groups with non-Gaussian distributions were compared using non-parametric Mann-Whitney tests. Survival differences were analyzed using the Log-Rank test. […] Standard error of percent inhibition was calculated from individual mice compared to the mean parasitemia level of the control group.\nThe effect of Cys on the potency and efficacy of the anti-malarial artemisinin derivatives was tested. […] Synergy (Tallarida R J (2001) J Pharmacol Exp Ther 298: 865-872) is defined as a total anti-malarial activity (reduction in blood parasitemia compared to untreated controls in a standard 4-day test) of the two compounds administered together being greater than the sum of the independent activities of the two compounds given alone. We tested combinations of Cys and either artesunate (ART) or dihydroartemisinin (DHA), the bioactive form of artemisinin. Pantetheinase-deficient mice were infected with P. chabaudi (10^7 pRBC, i.v.) and treated with Cys (170 mg/kg) and/or sub-optimal doses of ART (0.2 or 0.5 mg/kg) (FIG. 3A) or DHA (0.15 or 0.3 mg/kg) (FIG. 3B) from day 0-3 and parasitemia was monitored on days 4 and 5. […] Potentiation of the anti-malarial activity of ART (0.5 mg/kg) by Cys was also clearly evident in these C57BL/6 mice at both days 4 and 5 post-infection, with combined treatment causing a 65-71% reduction in parasitemia compared to PBS controls, greater than either compound tested alone (13-29%) (TABLE 1).\nIt was subsequently examined whether Cys potentiation of ART was dose dependent. Initially, Cys doses of 60, 100, 140 and 180 mg/kg were tested with a sub-optimal ART dose of 0.2 mg/kg. The drugs were administered from day 0-3 post infection, parasitemia was counted at day 4 and day 5 and the percent inhibition was calculated compared to PBS-treated controls (FIG. 4A). At 0.2 mg/kg, ART alone inhibits parasitemia by ˜20% (day 4) and 40% (day 5) while inhibition by Cys alone was partially dose dependent (varying between 10% and 25%). […] It was also assessed whether Cys could potentiate low doses of artesunate which, given alone, have no significant effect on parasitemia. In this experiment, Cys (170 mg/kg) was administered in combination, or not, with increasing doses of ART (0.05, 0.1, 0.2, 0.4 mg/kg) in the same 4-day experimental protocol."}, "[3]": {"settings": "A/J mice, DHA 0.15 mg/kg + cysteamine 170 mg/kg i.p."}, "[4]": {"settings": "A/J mice, DHA 0.3 mg/kg + cysteamine 170 mg/kg i.p."}}, "note": "Marks after values point to notes of the source that are not given here."}
{"smiles": "NCCS", "note": "[Cys bitartrate, cysteamine bitartrate]", "values": [{"measurement": "Cmax", "setting": "[1]; read-out: peak plasma concentration (Cmax)", "result": 39, "unit": "µM"}]}
{"smiles": "NCCS.O=C(O)C(O)C(O)C(=O)O", "note": "(stereo not drawn) [Cys bitartrate, cysteamine bitartrate]", "values": [{"measurement": "AUCT0-Tlast", "setting": "[1]", "result": 3613, "unit": "min"}]}
{"smiles": "C[C@@H]1CCC2[C@@H](C)[C@H](O)O[C@@H]3O[C@]4(C)CCC1C23OO4", "note": "(stereo partly drawn) [DHA, dihydroartemisinin]", "values": [{"measurement": "effect of addition of Cys on inhibition of parasitemia versus additive effect of the two compounds", "setting": "[2]; A/J mice, Cys 170 mg/kg added to ART (0.2 or 0.5 mg/kg) or DHA (0.15 or 0.3 mg/kg)", "result": "synergistic effect"}, {"measurement": "Inhibition of parasitemia Day 4", "setting": "[2]; [3]", "result": "56* % PBS control"}, {"measurement": "Inhibition of parasitemia Day 5", "setting": "[2]; [3]", "result": "46* % PBS control"}, {"measurement": "Inhibition of parasitemia Day 4", "setting": "[2]; A/J mice, DHA 0.15 mg/kg alone", "result": 22, "unit": "% PBS control"}, {"measurement": "Inhibition of parasitemia Day 5", "setting": "[2]; A/J mice, DHA 0.15 mg/kg alone", "result": 13, "unit": "% PBS control"}, {"measurement": "Inhibition of parasitemia Day 4", "setting": "[2]; [4]", "result": 80, "unit": "% PBS control"}, {"measurement": "Inhibition of parasitemia Day 5", "setting": "[2]; [4]", "result": "71* % PBS control"}, {"measurement": "Inhibition of parasitemia Day 4", "setting": "[2]; A/J mice, DHA 0.3 mg/kg alone", "result": 50, "unit": "% PBS control"}, {"measurement": "Inhibition of parasitemia Day 5", "setting": "[2]; A/J mice, DHA 0.3 mg/kg alone", "result": 40, "unit": "% PBS control"}, {"measurement": "symptoms of disease (ruffled fur, lethargy)", "setting": "[2]; mice receiving both Cys and ART/DHA, compared to PBS or only one compound", "result": "fewer symptoms of disease"}]}
